The values that follow come from US20060204443A1, “Methods for tumor treatment using dendrimer conjugates” (The Government of the USA as represented by the Secretary …, priority 2005, published 2006).

“Also recorded” adds a separate entry of the source.

Data set [1] has as its system axillary lymph nodes and their lymphatic vessels. Nature of the data set: Dynamic 3D-MR lymphangiography, effect of contrast agent size (Example 4). Format: in vivo, athymic nu/nu mice. Particulars: for Visualization of axillary lymph nodes and their lymphatic vessels: 6-36 minutes post-injection into mammary gland; for Depiction of lymphatic vessels / Signal intensity within the axillary lymph nodes in comparison to G6 and G8 / Signal intensity of adjacent muscle in comparison to G6 and G8: mouse, in vivo; for Signal intensity within the axillary lymph node (enhancement ratio, lymph node / adjacent muscle): 0.15 μmolGd/5 μL. As for the experimental part: Mice were anesthetized with 1.15 mg sodium pentobarbital (Dainabot, Osaka, Japan) by intraperitoneal injection. Then 0.15 μmolGd/5 μL of all nano-size contrast agents or 0.45 μmolGd/5 μL of Gd-[DTPA]-dimeglumine were injected into normal mammary glands or mammary tissue surrounding a tumor. Dynamic MR images were obtained using a 1.5-Tesla superconductive magnet unit (Signa LX, General Electric Medical System, Milwaukee, Wis.) with a birdcage type coil of 3 cm diameter fixed by a custom-made coil holder. The mice were wrapped with gauze to conserve their body temperature and were placed at the center of the coils.
In order to evaluate the effect of contrast agent molecular size on the ability to visualize the lymphatics and lymph nodes of athymic nu/nu mice, thirty five non-tumor bearing nu/nu mice were divided into seven groups (n=5). The mice were evaluated with 3D-fast spoiled gradient echo (3D-fastSPGR (efgre3d package; Signa Horizon, GE); repetition time/echo time 19.2/7.2 msec; inversion time 47 msec; bandwidth 31.2 kHz, flip angle 30°, 4 excitations; 36 slice encoding steps; scan time 4 minutes 49 seconds) with chemical shift fat-suppression at 6, 12, 18, 24, 30, and 36 minutes post-injection of each contrast agent. The coronal images were reconstructed with 0.6-mm section thickness every 0.3-mm. The field of view was 8×4 cm and the size of the matrix was 512×256. The slice data were processed into 3D images using the maximum intensity projection (MIP) method with the same window and level (window 3500 and level 2100) (Advantage Windows, General Electric Medical System). The enhancement ratio was calculated by taking the average signal intensity in the axillary lymph node and dividing it by the signal intensity in the adjacent muscle.

The test system of data set [2] is lymphatic vessels and lymph nodes of disease model mice. Nature of the data set: 3D-micro-MRL in lymphatic disease models (Concanavalin A lymphangitis, IL-15 transgenic). Format: in vivo. As to conditions: for Visualization of lymph nodes in lymphoproliferation/lymphoma: 45 minutes after injection. The procedure:
To generate a lymphangitis model, Concanavalin A ([…]) (Sigma, St. Louis, Mo.) was injected intravenously into C57BL6 mice (NCI, Frederick, Md.) 24 hours before MRI was performed.
Eight- to 10-month old IL-15 transgenic mice (on a C57BL6 background) were used as a chronic lymphoproliferative/neoplastic disease model because they manifested selective expansion of NK, CD8^+NK-T, γδIELs, and CD8 T cells in the periphery. Most of the lymph nodes collected from an aged IL-15 transgenic mouse were enlarged in size. The lesion of proliferated monoclonal lymphocytes often involved the lung and the subcutaneous lymphatic tissue.
(§1) The mice were anesthetized with 1.15 mg sodium pentobarbital (Dainabot, Osaka, Japan) by intraperitoneal injection, and then injected intracutaneously with 0.1 μmolGd of PAMAM-G8, DAB-G5, PAMAM-G4, Gadomer-17, or GPDM into four middle phalanges in all four extremities. Dynamic micro-MR images were obtained using a 1.5-Tesla superconductive magnet unit (Signa LX, General Electric Medical System, Milwaukee, Wis.) with a round birdcage type coil of 3 cm diameter fixed by a custom-made coil holder. Four to eight female mice (7 weeks old, 18-21 g body weight) in each group were used and each contrast agent was prepared at least three separate times for these imaging studies. The mice were wrapped with gauze to stabilize their body temperature and were placed at the center of the coils.
(§2) A 3D-fast spoiled gradient echo (3D-fastSPGR (efgre3d package; Signa Horizon, GE); repetition time/echo time 28.5/7.9 msec; inversion time 65 msec; 31.2 kHz, flip angle 30°, four excitations; 40 slice-encoding steps; scan time 7 min 36 seconds) with chemical shift fat-suppression was used 10, 20, 30, and 45 min after injection of the contrast agents. The coronal images were reconstructed with 0.6-mm section thickness at every 0.3-mm. The field of view was 6×3 cm and the size of the matrix was 512×256. The intensities of the regions of interest (for example, a whole axillary lymph node, and the liver) were measured, and then the time-intensity curves analyzed. The data were expressed as the axillary lymph node-to-muscle and the axillary lymph node-to-liver ratios. The slice data were processed into 3D images using the MIP method with the same window and level (window 3500 and level 2300) (Advantage Windows, General Electric Medical System). Two board-certified radiologists separately read a set of stereo views of 3D-MRL for all studies, and estimated the visualization of the thoracic duct. After imaging, the mice were sacrificed by carbon dioxide inhalation.

Data set [3] has as its system deep lymphatic system (lymph nodes, thoracic duct). Nature of the data set: Whole-body dynamic 3D-micro-MRL after intracutaneous injection, normal mice (Examples 2, 3). Format: in vivo. Particulars: for Number of Mice in Which the Thoracic Duct was Visualized/Number of Mice Examined: Normal Mice, 0.1 μmolGd intracutaneously; for Axillary lymph node-to-background (muscle) signal intensity ratio / Axillary lymph node-to-liver signal intensity ratio: all time points examined; for Axillary lymph node-to-background (muscle) signal intensity ratio: FIG. 11A; for Axillary lymph node-to-liver signal intensity ratio: FIG. 11B. The procedure:
as §1, §2
In this example, the PAMAM-G8 contrast agent is compared to GPDM. PAMAM-G8 was prepared as described in Example 2, and GPDM was purchased (Schering AG, Berlin, Germany). Animal models, administration of the contrast agents, and 3D-micro-MRL were as described in Example 2.

For data set [4] the following is noted: in vivo.
Setting [5] is: Example 2, normal mice, 10-45 min after injection.

As for “DAB-Am-128-(Gd-1B4M)128 dendrimer conjugate [DAB-G5]”, the “Visualization of axillary lymph nodes and their lymphatic vessels” value in data set [1] is “superior to the G2 and G4 PAMAM dendrimers; also recorded: better contrast than PAMAM dendrimer-based agents of similar sizes”. In addition, the “Depiction of lymphatic vessels” value in data set [1] is “neither agent depicted lymphatic vessels”. In addition, the “Signal intensity within the axillary lymph nodes in comparison to G6 and G8” value in data set [1] is “lower signal intensities”. Further, the “Visualization of lymph nodes in lymphoproliferation/lymphoma” value in data set [2] (IL-15 transgenic mice, FIG. 13) was “considerable multiple lymph node swellings with central filling defects”. Moreover, the “Number of Mice in Which the Thoracic Duct was Visualized/Number of Mice Examined” value is 3/5 in data set [3] (10 min), 2/5 in data set [3] (20 min), 0/5 in data set [3] (30 min) and 0/5 in data set [3] (45 min). Besides, the “Axillary lymph node-to-background (muscle) signal intensity ratio” value in data set [3] is recorded as “significantly higher than that obtained with either PAMAM-G8 or PAMAM-G4”. For the same substance, in data set [3], the “Axillary lymph node-to-liver signal intensity ratio” value is “nearly equivalent, but were significantly higher than that measured with GPDM”.
Turning to Gadomer-17 [reference compound], in data set [4] (iv), the “Clearance from the body” value is “rapidly cleared from the body”. Also, in data set [1], the “Visualization of axillary lymph nodes and their lymphatic vessels” value is “superior to the G2 and G4 PAMAM dendrimers; also recorded: better contrast than PAMAM dendrimer-based agents of similar sizes”; the “Depiction of lymphatic vessels” value is recorded as “neither agent depicted lymphatic vessels”; the “Signal intensity of adjacent muscle in comparison to G6 and G8” value is “significantly higher than those measured with G6 and G8”; the “Signal intensity within the axillary lymph nodes in comparison to G6 and G8” value is “lower signal intensities”. The “Visualization of deep lymph nodes” value in data set [3] (setting [5]) is “allowed visualization of the deep lymph nodes, albeit not as clearly and brightly as the dendrimer-based agents”. Also, in data set [3] (10 min), the “Number of Mice in Which the Thoracic Duct was Visualized/Number of Mice Examined” value is 2/5. The “Number of Mice in Which the Thoracic Duct was Visualized/Number of Mice Examined” value in data set [3] (20 min) was 2/5. Further, the “Number of Mice in Which the Thoracic Duct was Visualized/Number of Mice Examined” value in data set [3] (30 min) is reported as 1/5. Further, the “Number of Mice in Which the Thoracic Duct was Visualized/Number of Mice Examined” value in data set [3] (45 min) was 1/5. In data set [3], the “Axillary lymph node-to-background (muscle) signal intensity ratio” value is “significantly higher than that acquired with GPDM” and the “Axillary lymph node-to-liver signal intensity ratio” value is “nearly equivalent, but were significantly higher than that measured with GPDM”.
As to “PAMAM-G4D-(Gd-1B4M)64 dendrimer conjugate”, the “Survival in the blood circulation” value in data set [4] is “short survival in the blood circulation due to a rapid renal excretion without significant retention in other organs”. Also, the “Visualization of axillary lymph nodes and their lymphatic vessels” value in data set [1] was “able to depict the lymph nodes only faintly and then only up to 12 minutes post-injection”. The “Signal intensity of adjacent muscle in comparison to G6 and G8” value in data set [1] (listed as G4) was “significantly higher than those measured with G6 and G8; also recorded: higher signal in the adjacent muscle”. For the same substance, the “Signal intensity within the axillary lymph nodes in comparison to G6 and G8” value in data set [1] (listed as G4) is “lower signal intensities; also recorded: significantly lower signal”. For the same substance, the “Number of Mice in Which the Thoracic Duct was Visualized/Number of Mice Examined” value is 4/5 in data set [3] (10 min), 4/5 in data set [3] (20 min), 3/5 in data set [3] (30 min) and 2/5 in data set [3] (45 min). In addition, the “Axillary lymph node-to-background (muscle) signal intensity ratio” value in data set [3] was “significantly higher than that measured with Gadomer-17 and GPDM”. Further, the “Axillary lymph node-to-liver signal intensity ratio” value in data set [3] is listed as “significantly higher than that acquired with PAMAM-G8, DAB G-5, or Gadomer-17”.
Turning to “PAMAM-G7D-(Gd-1B4M)1024 dendrimer conjugate [PAMAM-G8]”, the “Leakage out of the lymphatic vessels” value in data set [4] is reported as “minimal leakage out of the lymphatic vessels”. The “Visualization of axillary lymph nodes and their lymphatic vessels” value in data set [1] is listed as “visualized at all time points in all 10 mice”. Also, the “Signal intensity within the axillary lymph node (enhancement ratio, lymph node / adjacent muscle)” value in data set [1] (6 minutes post-injection) is recorded as 1.7±0.2; in data set [1] (12 minutes post-injection), 2.3±0.2. Further, the “Visualization of lymphatic vessels in lymphangitis” value in data set [2] (Concanavalin A lymphangitis model, FIG. 12) is recorded as “demonstrated the remarkable dilation of the lymphatic vessels throughout the body, especially in the liver”. The “Visualization of lymph nodes in lymphoproliferation/lymphoma” value in data set [2] (IL-15 transgenic mice, FIG. 13) is given as “considerable multiple lymph node swellings with central filling defects”. In addition, the “Visualization of dilation of lymphatic vessels” value in data set [2] (IL-15 transgenic mice, FIG. 13) is “best visualized with PAMAM-G8”. The “Visualization of lymphatic vessels” value in data set [3] (Example 2) is given as “better visualized with PAMAM-G8 compared to all other agents examined”. For the same substance, the “Visualization by a radiologist of the thoracic duct” value in data set [3] (Example 2, all times after administration) is “in all mice at all times after administration”. The “Visualization of deep lymph nodes” value is recorded as “enabled most of the deep lymph nodes to be visualized” in data set [3] (setting [5]) and “most deep lymph nodes throughout the body were visualized” in data set [3] (Example 3, FIG. 15). In addition, the “Visualization of the thoracic duct” value in data set [3] (Example 3, FIG. 15) is given as “visualized in all six mice”. Also, the “Number of Mice in Which the Thoracic Duct was Visualized/Number of Mice Examined” value in data set [3] (10 min), in data set [3] (20 min), in data set [3] (30 min) and in data set [3] (45 min) was 10/10 each time. Moreover, the “Axillary lymph node-to-background (muscle) signal intensity ratio” value in data set [3] is “significantly higher than that measured with Gadomer-17 and GPDM”. Moreover, the “Axillary lymph node-to-liver signal intensity ratio” value in data set [3] is “nearly equivalent, but were significantly higher than that measured with GPDM”.
